Measured values: ChEMBL document CHEMBL5500396, “Discovery, Multiparametric Optimization, and Solid-State Driven Identification of CHF-6550, a Novel Soft Dual Pharmacology Muscarinic Antagonist and β2 Agonist (MABA) for the Inhaled Treatment of Respiratory Diseases” (J Med Chem, 2024)

System: not listed separately
Assay: in vitro
Conditions: rat, plasma
Description: Stability in rat plasma assessed as half-life at 5 uM incubated for 120 mins by LC-MS/MS analysis

**Q.** With `CN1CCC(COC(=O)[C@@](O)(c2ccccc2)c2cccc(-c3ccc(CNC(=O)c4ccc(CNC[C@H](O)c5ccc(O)c6[nH]c(=O)ccc56)cc4)s3)c2)CC1` as the compound, how does the half-life at 2 h, 5 µM read?
**A.** > 150 min

**Q.** With `CN1CCC[C@@H](OC(=O)[C@](O)(c2ccccc2)c2cccc(OCCCNC(=O)c3cnc(CNC[C@H](O)c4ccc(O)c5[nH]c(=O)ccc45)nc3)c2)C1.O=CO` as the compound, how does the half-life at 2 h, 5 µM read?
**A.** 13 min

**Q.** Which half-life at 2 h, 5 µM does the source give for `CN1CCC(COC(=O)[C@](O)(c2ccccc2)c2cccc(-c3ccc(CNC(=O)c4ccc(CNC[C@H](O)c5ccc(O)c6[nH]c(=O)ccc56)cc4)s3)c2)CC1` here?
**A.** 88 min

**Q.** Which half-life at 2 h, 5 µM does the source give for `O=C(NCCCOc1cccc([C@](O)(C(=O)O[C@@H]2CCN(Cc3ccccc3)C2)c2ccccc2)c1)c1ccc(CNC[C@H](O)c2ccc(O)c3[nH]c(=O)ccc23)cc1` here?
**A.** 5 min

**Q.** With `CN1CCC[C@@H](OC(=O)[C@](O)(c2ccccc2)c2cccc(OCCCNC(=O)c3cccc(CNC[C@H](O)c4ccc(O)c5[nH]c(=O)ccc45)c3)c2)C1` as the compound, how does the half-life at 2 h, 5 µM read?
**A.** 8 min

**Q.** With `Cc1cc(C(=O)NCCCOc2cccc([C@](O)(C(=O)O[C@@H]3CCCN(C)C3)c3ccccc3)c2)c(C)cc1CNC[C@H](O)c1ccc(O)c2[nH]c(=O)ccc12` as the compound, how does the half-life at 2 h, 5 µM read?
**A.** 30 min

**Q.** For `O=C(NCCCOc1cccc([C@](O)(C(=O)O[C@H]2CCN(Cc3ccccc3)C2)c2ccccc2)c1)c1ccc(CNC[C@H](O)c2ccc(O)c3[nH]c(=O)ccc23)cc1`, which half-life at 2 h, 5 µM is on record?
**A.** 15 min

System: not listed separately
Assay: in vitro
Conditions: rat, hepatocytes
Description: Metabolic stability in rat hepatocytes assessed as clearance measured per 10^6 cells at 1 uM incubated for 90 mins by LC-MS/MS analysis

**Q.** For `CN1CCC(COC(=O)[C@@](O)(c2ccccc2)c2cccc(-c3ccc(CNC(=O)c4ccc(CNC[C@H](O)c5ccc(O)c6[nH]c(=O)ccc56)cc4)s3)c2)CC1`, which hepatocyte CLint at 1.5 h, 1 µM is on record?
**A.** 13 µL/min/1e6 cells

**Q.** With `CN1CCC[C@@H](OC(=O)[C@](O)(c2ccccc2)c2cccc(OCCCNC(=O)c3cnc(CNC[C@H](O)c4ccc(O)c5[nH]c(=O)ccc45)nc3)c2)C1.O=CO` as the compound, how does the hepatocyte CLint at 1.5 h, 1 µM read?
**A.** 33 µL/min/1e6 cells

**Q.** With `CN1CCC(COC(=O)[C@](O)(c2ccccc2)c2cccc(-c3ccc(CNC(=O)c4ccc(CNC[C@H](O)c5ccc(O)c6[nH]c(=O)ccc56)cc4)s3)c2)CC1` as the compound, how does the hepatocyte CLint at 1.5 h, 1 µM read?
**A.** 21 µL/min/1e6 cells

**Q.** With `O=C(NCCCOc1cccc([C@](O)(C(=O)O[C@@H]2CCN(Cc3ccccc3)C2)c2ccccc2)c1)c1ccc(CNC[C@H](O)c2ccc(O)c3[nH]c(=O)ccc23)cc1` as the compound, how does the hepatocyte CLint at 1.5 h, 1 µM read?
**A.** 69 µL/min/1e6 cells

**Q.** Which hepatocyte CLint at 1.5 h, 1 µM does the source give for `CN1CCC[C@@H](OC(=O)[C@](O)(c2ccccc2)c2cccc(OCCCNC(=O)c3cccc(CNC[C@H](O)c4ccc(O)c5[nH]c(=O)ccc45)c3)c2)C1` here?
**A.** 28 µL/min/1e6 cells

**Q.** Which hepatocyte CLint at 1.5 h, 1 µM does the source give for `Cc1cc(C(=O)NCCCOc2cccc([C@](O)(C(=O)O[C@@H]3CCCN(C)C3)c3ccccc3)c2)c(C)cc1CNC[C@H](O)c1ccc(O)c2[nH]c(=O)ccc12` here?
**A.** 49 µL/min/1e6 cells

**Q.** For `O=C(NCCCOc1cccc([C@](O)(C(=O)O[C@H]2CCN(Cc3ccccc3)C2)c2ccccc2)c1)c1ccc(CNC[C@H](O)c2ccc(O)c3[nH]c(=O)ccc23)cc1`, which hepatocyte CLint at 1.5 h, 1 µM is on record?
**A.** 71 µL/min/1e6 cells

Biological target: Beta-2 adrenergic receptor (Homo sapiens, UniProt P07550)
Sequence (P07550 whole entry): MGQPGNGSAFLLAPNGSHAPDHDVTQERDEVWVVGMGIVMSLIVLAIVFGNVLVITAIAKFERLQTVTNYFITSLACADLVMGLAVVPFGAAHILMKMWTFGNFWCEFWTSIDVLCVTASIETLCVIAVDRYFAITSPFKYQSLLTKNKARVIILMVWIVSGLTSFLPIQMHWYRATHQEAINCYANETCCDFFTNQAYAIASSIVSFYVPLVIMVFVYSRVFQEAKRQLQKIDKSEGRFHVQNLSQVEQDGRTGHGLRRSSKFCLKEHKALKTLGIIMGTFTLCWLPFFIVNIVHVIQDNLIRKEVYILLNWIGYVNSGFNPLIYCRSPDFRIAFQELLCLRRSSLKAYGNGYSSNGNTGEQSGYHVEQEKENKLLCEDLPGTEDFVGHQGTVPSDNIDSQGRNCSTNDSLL
Assay: not given
Conditions: not given

**Q.** With `CN1CCC(COC(=O)[C@@](O)(c2ccccc2)c2cccc(-c3ccc(CNC(=O)c4ccc(CNC[C@H](O)c5ccc(O)c6[nH]c(=O)ccc56)cc4)s3)c2)CC1` as the compound, how does the Ki read?
**A.** 1 nM

**Q.** With `CN1CCC[C@@H](OC(=O)[C@](O)(c2ccccc2)c2cccc(OCCCNC(=O)c3cnc(CNC[C@H](O)c4ccc(O)c5[nH]c(=O)ccc45)nc3)c2)C1.O=CO` as the compound, how does the Ki read?
**A.** 0.0251 nM

**Q.** For `CN1CCC(COC(=O)[C@](O)(c2ccccc2)c2cccc(-c3ccc(CNC(=O)c4ccc(CNC[C@H](O)c5ccc(O)c6[nH]c(=O)ccc56)cc4)s3)c2)CC1`, which Ki is on record?
**A.** 0.398 nM

**Q.** Which Ki does the source give for `O=C(NCCCOc1cccc([C@](O)(C(=O)O[C@@H]2CCN(Cc3ccccc3)C2)c2ccccc2)c1)c1ccc(CNC[C@H](O)c2ccc(O)c3[nH]c(=O)ccc23)cc1` here?
**A.** 0.158 nM

**Q.** For `CN1CCC[C@@H](OC(=O)[C@](O)(c2ccccc2)c2cccc(OCCCNC(=O)c3cccc(CNC[C@H](O)c4ccc(O)c5[nH]c(=O)ccc45)c3)c2)C1`, which Ki is on record?
**A.** 2 nM

**Q.** For `Cc1cc(C(=O)NCCCOc2cccc([C@](O)(C(=O)O[C@@H]3CCCN(C)C3)c3ccccc3)c2)c(C)cc1CNC[C@H](O)c1ccc(O)c2[nH]c(=O)ccc12`, which Ki is on record?
**A.** 0.0158 nM

**Q.** With `O=C(NCCCOc1cccc([C@](O)(C(=O)O[C@H]2CCN(Cc3ccccc3)C2)c2ccccc2)c1)c1ccc(CNC[C@H](O)c2ccc(O)c3[nH]c(=O)ccc23)cc1` as the compound, how does the Ki read?
**A.** 0.398 nM

System: not listed separately
Assay: in vitro
Conditions: guinea pig, plasma
Description: Stability in guinea pig plasma assessed as half-life at 5 uM incubated for 120 mins by LC-MS/MS analysis

**Q.** With `CN1CCC(COC(=O)[C@@](O)(c2ccccc2)c2cccc(-c3ccc(CNC(=O)c4ccc(CNC[C@H](O)c5ccc(O)c6[nH]c(=O)ccc56)cc4)s3)c2)CC1` as the compound, how does the half-life at 2 h, 5 µM read?
**A.** 9 min

**Q.** Which half-life at 2 h, 5 µM does the source give for `CN1CCC[C@@H](OC(=O)[C@](O)(c2ccccc2)c2cccc(OCCCNC(=O)c3cnc(CNC[C@H](O)c4ccc(O)c5[nH]c(=O)ccc45)nc3)c2)C1.O=CO` here?
**A.** 8 min

**Q.** Which half-life at 2 h, 5 µM does the source give for `CN1CCC(COC(=O)[C@](O)(c2ccccc2)c2cccc(-c3ccc(CNC(=O)c4ccc(CNC[C@H](O)c5ccc(O)c6[nH]c(=O)ccc56)cc4)s3)c2)CC1` here?
**A.** 48 min

**Q.** With `O=C(NCCCOc1cccc([C@](O)(C(=O)O[C@@H]2CCN(Cc3ccccc3)C2)c2ccccc2)c1)c1ccc(CNC[C@H](O)c2ccc(O)c3[nH]c(=O)ccc23)cc1` as the compound, how does the half-life at 2 h, 5 µM read?
**A.** 37 min

**Q.** Which half-life at 2 h, 5 µM does the source give for `CN1CCC[C@@H](OC(=O)[C@](O)(c2ccccc2)c2cccc(OCCCNC(=O)c3cccc(CNC[C@H](O)c4ccc(O)c5[nH]c(=O)ccc45)c3)c2)C1` here?
**A.** 98 min

**Q.** With `Cc1cc(C(=O)NCCCOc2cccc([C@](O)(C(=O)O[C@@H]3CCCN(C)C3)c3ccccc3)c2)c(C)cc1CNC[C@H](O)c1ccc(O)c2[nH]c(=O)ccc12` as the compound, how does the half-life at 2 h, 5 µM read?
**A.** 142 min

**Q.** With `O=C(NCCCOc1cccc([C@](O)(C(=O)O[C@H]2CCN(Cc3ccccc3)C2)c2ccccc2)c1)c1ccc(CNC[C@H](O)c2ccc(O)c3[nH]c(=O)ccc23)cc1` as the compound, how does the half-life at 2 h, 5 µM read?
**A.** 12 min

System: not listed separately
Assay: in vitro
Conditions: human, hepatocytes
Description: Metabolic stability in human hepatocytes assessed as clearance measured per 10^6 cells at 1 uM incubated for 90 mins by LC-MS/MS analysis

**Q.** For `CN1CCC(COC(=O)[C@@](O)(c2ccccc2)c2cccc(-c3ccc(CNC(=O)c4ccc(CNC[C@H](O)c5ccc(O)c6[nH]c(=O)ccc56)cc4)s3)c2)CC1`, which hepatocyte CLint at 1.5 h, 1 µM is on record?
**A.** 3 µL/min/1e6 cells

**Q.** Which hepatocyte CLint at 1.5 h, 1 µM does the source give for `CN1CCC[C@@H](OC(=O)[C@](O)(c2ccccc2)c2cccc(OCCCNC(=O)c3cnc(CNC[C@H](O)c4ccc(O)c5[nH]c(=O)ccc45)nc3)c2)C1.O=CO` here?
**A.** < 2 µL/min/1e6 cells

**Q.** For `CN1CCC(COC(=O)[C@](O)(c2ccccc2)c2cccc(-c3ccc(CNC(=O)c4ccc(CNC[C@H](O)c5ccc(O)c6[nH]c(=O)ccc56)cc4)s3)c2)CC1`, which hepatocyte CLint at 1.5 h, 1 µM is on record?
**A.** 27 µL/min/1e6 cells

**Q.** For `O=C(NCCCOc1cccc([C@](O)(C(=O)O[C@@H]2CCN(Cc3ccccc3)C2)c2ccccc2)c1)c1ccc(CNC[C@H](O)c2ccc(O)c3[nH]c(=O)ccc23)cc1`, which hepatocyte CLint at 1.5 h, 1 µM is on record?
**A.** 23 µL/min/1e6 cells

**Q.** For `CN1CCC[C@@H](OC(=O)[C@](O)(c2ccccc2)c2cccc(OCCCNC(=O)c3cccc(CNC[C@H](O)c4ccc(O)c5[nH]c(=O)ccc45)c3)c2)C1`, which hepatocyte CLint at 1.5 h, 1 µM is on record?
**A.** 5 µL/min/1e6 cells

**Q.** With `Cc1cc(C(=O)NCCCOc2cccc([C@](O)(C(=O)O[C@@H]3CCCN(C)C3)c3ccccc3)c2)c(C)cc1CNC[C@H](O)c1ccc(O)c2[nH]c(=O)ccc12` as the compound, how does the hepatocyte CLint at 1.5 h, 1 µM read?
**A.** 3 µL/min/1e6 cells

**Q.** With `O=C(NCCCOc1cccc([C@](O)(C(=O)O[C@H]2CCN(Cc3ccccc3)C2)c2ccccc2)c1)c1ccc(CNC[C@H](O)c2ccc(O)c3[nH]c(=O)ccc23)cc1` as the compound, how does the hepatocyte CLint at 1.5 h, 1 µM read?
**A.** 22 µL/min/1e6 cells

Biological target: Muscarinic acetylcholine receptor M3 (Homo sapiens, UniProt P20309)
Sequence (P20309 whole entry): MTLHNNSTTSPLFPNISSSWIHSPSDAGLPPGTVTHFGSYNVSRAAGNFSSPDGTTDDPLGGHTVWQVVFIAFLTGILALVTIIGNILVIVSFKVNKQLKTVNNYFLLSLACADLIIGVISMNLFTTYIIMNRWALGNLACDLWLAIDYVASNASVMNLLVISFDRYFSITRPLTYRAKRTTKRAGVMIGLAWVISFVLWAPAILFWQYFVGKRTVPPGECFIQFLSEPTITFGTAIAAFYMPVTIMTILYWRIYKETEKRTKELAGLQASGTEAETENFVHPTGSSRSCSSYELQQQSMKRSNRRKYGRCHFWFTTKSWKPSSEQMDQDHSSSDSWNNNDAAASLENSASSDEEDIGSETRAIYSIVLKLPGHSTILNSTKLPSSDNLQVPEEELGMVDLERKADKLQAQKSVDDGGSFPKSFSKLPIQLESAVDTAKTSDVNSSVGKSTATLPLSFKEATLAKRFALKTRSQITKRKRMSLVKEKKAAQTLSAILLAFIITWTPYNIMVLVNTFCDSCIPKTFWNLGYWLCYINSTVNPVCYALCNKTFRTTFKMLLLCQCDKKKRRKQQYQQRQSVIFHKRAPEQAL
Assay: not given
Conditions: not given

**Q.** Which Ki does the source give for `CN1CCC(COC(=O)[C@@](O)(c2ccccc2)c2cccc(-c3ccc(CNC(=O)c4ccc(CNC[C@H](O)c5ccc(O)c6[nH]c(=O)ccc56)cc4)s3)c2)CC1` here?
**A.** 0.158 nM

**Q.** Which Ki does the source give for `CN1CCC(COC(=O)[C@](O)(c2ccccc2)c2cccc(-c3ccc(CNC(=O)c4ccc(CNC[C@H](O)c5ccc(O)c6[nH]c(=O)ccc56)cc4)s3)c2)CC1` here?
**A.** 2.51 nM

System: not listed separately
Assay: in vitro
Conditions: human, plasma
Description: Stability in human plasma assessed as half-life at 5 uM incubated for 120 mins by LC-MS/MS analysis

**Q.** Which half-life at 2 h, 5 µM does the source give for `CN1CCC(COC(=O)[C@@](O)(c2ccccc2)c2cccc(-c3ccc(CNC(=O)c4ccc(CNC[C@H](O)c5ccc(O)c6[nH]c(=O)ccc56)cc4)s3)c2)CC1` here?
**A.** > 150 min

**Q.** With `CN1CCC[C@@H](OC(=O)[C@](O)(c2ccccc2)c2cccc(OCCCNC(=O)c3cnc(CNC[C@H](O)c4ccc(O)c5[nH]c(=O)ccc45)nc3)c2)C1.O=CO` as the compound, how does the half-life at 2 h, 5 µM read?
**A.** > 150 min

**Q.** For `CN1CCC(COC(=O)[C@](O)(c2ccccc2)c2cccc(-c3ccc(CNC(=O)c4ccc(CNC[C@H](O)c5ccc(O)c6[nH]c(=O)ccc56)cc4)s3)c2)CC1`, which half-life at 2 h, 5 µM is on record?
**A.** > 150 min

**Q.** With `O=C(NCCCOc1cccc([C@](O)(C(=O)O[C@@H]2CCN(Cc3ccccc3)C2)c2ccccc2)c1)c1ccc(CNC[C@H](O)c2ccc(O)c3[nH]c(=O)ccc23)cc1` as the compound, how does the half-life at 2 h, 5 µM read?
**A.** > 150 min

**Q.** Which half-life at 2 h, 5 µM does the source give for `CN1CCC[C@@H](OC(=O)[C@](O)(c2ccccc2)c2cccc(OCCCNC(=O)c3cccc(CNC[C@H](O)c4ccc(O)c5[nH]c(=O)ccc45)c3)c2)C1` here?
**A.** > 150 min

**Q.** For `Cc1cc(C(=O)NCCCOc2cccc([C@](O)(C(=O)O[C@@H]3CCCN(C)C3)c3ccccc3)c2)c(C)cc1CNC[C@H](O)c1ccc(O)c2[nH]c(=O)ccc12`, which half-life at 2 h, 5 µM is on record?
**A.** > 150 min

**Q.** Which half-life at 2 h, 5 µM does the source give for `O=C(NCCCOc1cccc([C@](O)(C(=O)O[C@H]2CCN(Cc3ccccc3)C2)c2ccccc2)c1)c1ccc(CNC[C@H](O)c2ccc(O)c3[nH]c(=O)ccc23)cc1` here?
**A.** > 150 min
